Results from US11897850B1, “N′-(2-(5-(4-chlorophenyl)-1,3,4-oxadiazol-2-ylthio)acetoxy)-4-methoxybenzimidamide as an antimicrobial compound” (KING FAISAL UNIVERSITY, priority 2023, dated 2024).

Legend:
Format in all cases: cell-based
Aspergillus flavus = assay: Agar plate disc-diffusion, antifungal activity by inhibition zone; details: Sabouraud's dextrose agar, 72 h
Experimental: (§1) The agar plate disc-diffusion method was applied. […] The discs were then placed onto the surface of agar plates (nutrient agar for bacteria and Sabouraud's dextrose agar for fungi) seeded with the test organism. Each plate contained 15 mL of the agar medium, previously seeded with 0.2 mL of the broth culture of each organism pregrown for 18 h. The plates were incubated at 37° C. for 48 h, and 72 h for fungi. The inhibition zones was measured in mm. Discs impregnated with DMSO were used as a control, and its inhibition zone was subtracted from the tested compound actual inhibition zone.
(§2) The results of the antimicrobial testing can be observed in Tables 1 and 2, below, using ciprofloxacin as a reference.

Staphylococcus aureus = assay: Agar plate disc-diffusion, antibacterial activity by inhibition zone; details: nutrient agar, 37° C., 48 h
Experimental: as §1, §2

Pseudomonas aeruginosa = assay: as above; details: nutrient agar, 37° C., 48 h
Experimental: as §1, §2

Bacillus cereus = assay: as above; details: nutrient agar, 37° C., 48 h
Experimental: as §1, §2

Escherichia coli = assay: as above; details: nutrient agar, 37° C., 48 h
Experimental: as §1, §2

[1] = tested on: Chrysosporium keratinophilum; assay: Agar plate disc-diffusion, antifungal activity by inhibition zone; details: Sabouraud's dextrose agar, 72 h
Experimental: The agar plate disc-diffusion method was applied. Sterilized filter papers (6 mm in diameter) were wetted with 10 μL of a solution N′-(2-(5-(4-chlorophenyl)-1,3,4-oxadiazol-2-ylthio)acetoxy)-4-methoxybenzimidamide (3) to be tested, containing 10 mg/mL in DMSO, and the discs were allowed to air dry. The discs were then placed onto the surface of agar plates (nutrient agar for bacteria and Sabouraud's dextrose agar for fungi) seeded with the test organism. Each plate contained 15 mL of the agar medium, previously seeded with 0.2 mL of the broth culture of each organism pregrown for 18 h. The plates were incubated at 37° C. for 48 h, and 72 h for fungi. The inhibition zones was measured in mm. Discs impregnated with DMSO were used as a control, and its inhibition zone was subtracted from the tested compound actual inhibition zone.
as §2

[2] = A = concentration of comp. = 10,000 μL
[3] = B = concentration of comp. = 30,000 μL
[4] = C = concentration of comp. = 50,000 μL

Row | Compound | inhibition zone (Aspergillus flavus; [2]) | inhibition zone (Aspergillus flavus; [3]) | inhibition zone (Aspergillus flavus; [4]) | inhibition zone (Staphylococcus aureus; [2]) | inhibition zone (Staphylococcus aureus; [3]) | inhibition zone (Staphylococcus aureus; [4]) | inhibition zone (Pseudomonas aeruginosa; [2]) | inhibition zone (Pseudomonas aeruginosa; [3]) | inhibition zone (Pseudomonas aeruginosa; [4]) | inhibition zone (Bacillus cereus; [2]) | inhibition zone (Bacillus cereus; [3]) | inhibition zone (Bacillus cereus; [4]) | inhibition zone (Escherichia coli; [2]) | inhibition zone (Escherichia coli; [3]) | inhibition zone (Escherichia coli; [4]) | inhibition zone [1, 2] | inhibition zone [1, 3] | inhibition zone [1, 4]
1 | O=C(O)c1cn(C2CC2)c2cc(N3CCNCC3)c(F)cc2c1=O [Cip., ciprofloxacin] | 29 mm | 30 mm | 42 mm | 43 mm | 44 mm | 53 mm | 29 mm | 30 mm | 53 mm | 29 mm | 30 mm | 42 mm | 30 mm | 39 mm | 60 mm | 29 mm | 30 mm | 53 mm
2 | COc1ccc(/C(N)=N/OC(=O)CSc2nnc(-c3ccc(Cl)cc3)o2)cc1 [Compound 3, N′-(2-(5-(4-chlorophenyl)-1,3,4-oxadiazol-2-ylthio)acetoxy)-4-methoxybenzimidamide] | 21 mm | 22 mm | 35 mm | 20 mm | 24 mm | 36 mm | 24 mm | 28 mm | 40 mm | 28 mm | 31 mm | 39 mm | 29 mm | 38 mm | 47 mm | 24 mm | 28 mm | 41 mm
